Measured values reported in patent US12617773B2, “Azetidin-3-ylmethanol derivatives as CCR6 receptor modulators” (Idorsia Pharmaceuticals Ltd, priority 2020, dated 2026).

Molecular target: T1, human CCR6 (Homo sapiens, UniProt P51684)
T1 construct: expressed in transfected cells; host or cells: HEK-293
T1 sequence (P51684 1-374): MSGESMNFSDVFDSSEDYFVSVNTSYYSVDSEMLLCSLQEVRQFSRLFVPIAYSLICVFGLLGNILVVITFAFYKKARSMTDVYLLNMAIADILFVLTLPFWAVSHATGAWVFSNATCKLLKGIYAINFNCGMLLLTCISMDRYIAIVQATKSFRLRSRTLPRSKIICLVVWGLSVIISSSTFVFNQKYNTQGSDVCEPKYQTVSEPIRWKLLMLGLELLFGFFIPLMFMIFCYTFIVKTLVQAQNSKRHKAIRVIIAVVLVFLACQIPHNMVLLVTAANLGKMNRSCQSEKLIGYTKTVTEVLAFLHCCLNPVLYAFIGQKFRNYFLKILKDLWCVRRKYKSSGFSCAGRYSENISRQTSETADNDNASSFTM
Experiment: FLIPR assay (inhibition of CCL20-induced calcium signal)
Assay type: cell-based
Conditions: HEK-293 cells expressing human CCR6; mean values where determined several times; read-out: FLIPR IC50
Outline: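 IC50 values come from baseline-corrected peak calcium fluorescence after agonist. The agonist was CCL20 at 10 nM final, added to engineered human CCR6 HEK-293 cells following a 30-min, room-temperature, dark preincubation with serially diluted compound. Readings were taken in a fluorometric imaging plate reader.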

Row | SMILES | IC50
1 | CCN1CC(C)([C@](O)(c2ccc(C(C)C)cc2)c2cncc(-c3noc(C(C)(C)O)n3)c2)C1 [Example 340, 2-(3-{5-[(R)-(1-Ethyl-3-methyl-azetidin-3-yl)-hydroxy-(4-isopropyl-phenyl)-methyl]-pyridin-3-yl}-[1,2,4]oxadiazol-5-yl)-propan-2-ol] | 79.4 nM
2 | CC(C)c1ccc([C@](O)(c2cncc(-c3nc(C4CCN(C(=O)OCc5ccccc5)CC4)no3)c2)C2(C)CN(C)C2)cc1 [Example 341] | 66.6 nM
3 | CC(=O)N1CCC(c2noc(-c3cncc([C@@](O)(c4ccc(C(C)C)cc4)C4(C)CN(C)C4)c3)n2)CC1 [Example 342] | 154 nM
4 | [2H]C([2H])([2H])C(=O)N1CC(C)(c2nc(-c3cncc([C@@](O)(c4ccc(C(C)C)cc4)C4(C)CN(C)C4)c3)no2)C1 [Example 344] | 441 nM
5 | [2H]C([2H])([2H])C(=O)N1CC(F)(c2nc(-c3cncc([C@@](O)(c4ccc(C(C)C)cc4)C4(C)CN(C)C4)c3)no2)C1 [Example 345] | 252 nM
6 | CC(C)c1ccc([C@](O)(c2cncc(-c3noc(C(C)(C)N4CCOCC4)n3)c2)C2(C)CN(C)C2)cc1 [Example 346] | 62.5 nM
7 | CC(=O)NC(C)(C)c1nc(-c2cncc([C@@](O)(c3ccc(C(C)C)cc3)C3(C)CN(C)C3)c2)no1 [Example 350] | 242 nM
8 | CC(C)c1ccc([C@](O)(c2cncc(-c3noc(C4(C)CCN(C)C4=O)n3)c2)C2(C)CN(C)C2)cc1 (stereo partly shown) [Example 352] | 110 nM
9 | CC(C)c1ccc([C@](O)(c2cncc(-c3noc(C4(C)CCNCC4)n3)c2)C2(C)CN(C)C2)cc1 [Example 368] | 271 nM
10 | CC(C)c1ccc([C@](O)(c2cncc(-c3noc(C4(F)CCNCC4)n3)c2)C2(C)CN(C)C2)cc1 [Example 369] | 187 nM
11 | CCCC(=O)N1CCC(c2nc(-c3cncc([C@@](O)(c4ccc(C(C)C)cc4)C4(C)CN(C)C4)c3)no2)CC1 [Example 370, 1-[4-(3-{5-[(R)-(1,3-Dimethyl-azetidin-3-yl)-hydroxy-(4-isopropyl-phenyl)-methyl]-pyridin-3-yl}-[1,2,4]oxadiazol-5-yl)-piperidin-1-yl]-butan-1-one] | 65.9 nM
12 | CC(C)c1ccc([C@](O)(c2cncc(-c3noc(C4CCN(C(=O)C(C)(C)C)CC4)n3)c2)C2(C)CN(C)C2)cc1 [Example 371] | 49.7 nM
13 | COCC(=O)N1CCC(c2nc(-c3cncc([C@@](O)(c4ccc(C(C)C)cc4)C4(C)CN(C)C4)c3)no2)CC1 [Example 372] | 103 nM
14 | COCCC(=O)N1CCC(c2nc(-c3cncc([C@@](O)(c4ccc(C(C)C)cc4)C4(C)CN(C)C4)c3)no2)CC1 [Example 373] | 88.9 nM
15 | CC(C)c1ccc([C@](O)(c2cncc(-c3noc(C4CCN(C(=O)C5CC5)CC4)n3)c2)C2(C)CN(C)C2)cc1 [Example 374] | 39 nM
16 | CC(C)c1ccc([C@](O)(c2cncc(-c3noc(C4CCN(C(=O)C5CCCC5)CC4)n3)c2)C2(C)CN(C)C2)cc1 [Example 375] | 39.7 nM
17 | CC(C)c1ccc([C@](O)(c2cncc(-c3noc(C4CCN(C(=O)C5CCOCC5)CC4)n3)c2)C2(C)CN(C)C2)cc1 [Example 376] | 102 nM

Row | SMILES | IC50
18 | CC(C)c1ccc([C@](O)(c2cncc(-c3noc(C4CCN(C(=O)c5ccccc5)CC4)n3)c2)C2(C)CN(C)C2)cc1 [Example 377] | 39.5 nM
19 | COC(=O)N1CCC(c2nc(-c3cncc([C@@](O)(c4ccc(C(C)C)cc4)C4(C)CN(C)C4)c3)no2)CC1 [Example 378] | 54.9 nM
20 | CCOC(=O)N1CCC(c2nc(-c3cncc([C@@](O)(c4ccc(C(C)C)cc4)C4(C)CN(C)C4)c3)no2)CC1 [Example 379] | 41.2 nM
21 | COCCOC(=O)N1CCC(c2nc(-c3cncc([C@@](O)(c4ccc(C(C)C)cc4)C4(C)CN(C)C4)c3)no2)CC1 [Example 380] | 71.5 nM
22 | CC(C)c1ccc([C@](O)(c2cncc(-c3noc(C4CCN(S(C)(=O)=O)CC4)n3)c2)C2(C)CN(C)C2)cc1 [Example 381] | 53.4 nM
23 | CC(C)c1ccc([C@](O)(c2cncc(-c3noc(C4CCN(S(=O)(=O)C(C)C)CC4)n3)c2)C2(C)CN(C)C2)cc1 [Example 382] | 43.7 nM
24 | CCCS(=O)(=O)N1CCC(c2nc(-c3cncc([C@@](O)(c4ccc(C(C)C)cc4)C4(C)CN(C)C4)c3)no2)CC1 [Example 383] | 53.8 nM
25 | COCCS(=O)(=O)N1CCC(c2nc(-c3cncc([C@@](O)(c4ccc(C(C)C)cc4)C4(C)CN(C)C4)c3)no2)CC1 [Example 384] | 42.1 nM
26 | CC(C)c1ccc([C@](O)(c2cncc(-c3noc(C4CCN(S(=O)(=O)CCO)CC4)n3)c2)C2(C)CN(C)C2)cc1 [Example 385] | 117 nM
27 | CC(C)c1ccc([C@](O)(c2cncc(-c3noc(C4CCN(S(=O)(=O)C5CCCC5)CC4)n3)c2)C2(C)CN(C)C2)cc1 [Example 386] | 41 nM
28 | CC(C)c1ccc([C@](O)(c2cncc(-c3noc(C4CCN(S(=O)(=O)C5CCOCC5)CC4)n3)c2)C2(C)CN(C)C2)cc1 [Example 387] | 55.1 nM
29 | CNS(=O)(=O)N1CCC(c2nc(-c3cncc([C@@](O)(c4ccc(C(C)C)cc4)C4(C)CN(C)C4)c3)no2)CC1 [Example 388] | 28.2 nM
30 | CNC1(c2nc(-c3cncc([C@@](O)(c4ccc(C(C)C)cc4)C4(C)CN(C)C4)c3)no2)CC1 [Example 389, (R)-(1,3-Dimethyl-azetidin-3-yl)-(4-isopropyl-phenyl)-{5-[5-(1-methylamino-cyclopropyl)-[1,2,4]oxadiazol-3-yl]-pyridin-3-yl}-methanol] | 58.1 nM
31 | CCOC(=O)N(C)C1(c2nc(-c3cncc([C@@](O)(c4ccc(C(C)C)cc4)C4(C)CN(C)C4)c3)no2)CC1 [Example 390] | 175 nM
32 | CC(C)c1ccc([C@](O)(c2cncc(-c3noc(C4(N(C)S(C)(=O)=O)CC4)n3)c2)C2(C)CN(C)C2)cc1 [Example 391] | 58.8 nM
33 | CC(C)c1ccc([C@](O)(c2cnnc(OC3CCCC3(C)C)c2)C2(C)CN(C)C2)cc1 (stereo partly drawn) [Example 392, (R)-(1,3-Dimethyl-azetidin-3-yl)-[6-(2,2-dimethyl-cyclopentyloxy)-pyridazin-4-yl]-(4-isopropyl-phenyl)-methanol] | 24.2 nM
34 | CC(C)c1ccc([C@](O)(c2cnnc(OC3CCC(F)(F)C3)c2)C2(C)CN(C)C2)cc1 (stereo partly drawn) [Example 393, (R)-[6-(3,3-Difluoro-cyclopentyloxy)-pyridazin-4-yl]-(1,3-dimethyl-azetidin-3-yl)-(4-isopropyl-phenyl)-methanol] | 25.1 nM

The next lines start with the values.

Row | IC50 | SMILES
35 | 532 nM | [2H]C([2H])([2H])C(=O)N1CC(c2nc(-c3cncc([C@@](O)(c4ccc(C(C)C)cc4)C4(C)CN(C)C4)c3)no2)C1 [Example 343]
36 | 120 nM | CC(C)c1ccc([C@](O)(c2cncc(-c3noc(C4CCN(C)C(=O)C4)n3)c2)C2(C)CN(C)C2)cc1 (stereo partly shown) [Example 347]
37 | 135 nM | CC(=O)N1CC[C@H](c2nc(-c3cncc([C@@](O)(c4ccc(C(C)C)cc4)C4(C)CN(C)C4)c3)no2)C1 [Example 348]
38 | 113 nM | CC(=O)N1CC[C@@H](c2nc(-c3cncc([C@@](O)(c4ccc(C(C)C)cc4)C4(C)CN(C)C4)c3)no2)C1 [Example 349]
39 | 27.6 nM | CC(C)c1ccc([C@](O)(c2cncc(-c3noc(C4CCN(Cc5ccccc5)C4=O)n3)c2)C2(C)CN(C)C2)cc1 (stereo partly shown) [Example 351]
40 | 40.3 nM | CC(C)CN1CC(c2nc(-c3cncc([C@@](O)(c4ccc(C(C)C)cc4)C4(C)CN(C)C4)c3)no2)CC1=O (stereo partly shown) [Example 353]
41 | 29 nM | CC(C)c1ccc([C@](O)(c2cncc(-c3noc(C4CC(=O)N(Cc5ccco5)C4)n3)c2)C2(C)CN(C)C2)cc1 (stereo partly shown) [Example 354]
42 | 24.8 nM | CC(C)c1ccc([C@](O)(c2cncc(-c3noc(C4CC(=O)N(c5ccccc5)C4)n3)c2)C2(C)CN(C)C2)cc1 (stereo partly shown) [Example 355]
43 | 12.7 nM | CC(C)c1ccc([C@](O)(c2cncc(-c3noc(C4CC(=O)N(Cc5ccccc5)C4)n3)c2)C2(C)CN(C)C2)cc1 (stereo partly shown) [Example 356]
44 | 26.1 nM | CC(C)c1ccc([C@](O)(c2cncc(-c3noc(C4CCC(=O)N4c4ccccc4)n3)c2)C2(C)CN(C)C2)cc1 (stereo partly shown) [Example 357]
45 | 131 nM | CC(C)c1ccc([C@](O)(c2cncc(-c3noc(C4CNC(=O)C4)n3)c2)C2(C)CN(C)C2)cc1 (stereo partly shown) [Example 358]
46 | 234 nM | CC(C)c1ccc([C@](O)(c2cncc(-c3noc([C@@H]4CCC(=O)N4)n3)c2)C2(C)CN(C)C2)cc1 [Example 359]
47 | 292 nM | CC(C)c1ccc([C@](O)(c2cncc(-c3noc([C@H]4CCC(=O)N4)n3)c2)C2(C)CN(C)C2)cc1 [Example 360]
48 | 164 nM | CC(C)c1ccc([C@](O)(c2cncc(-c3noc([C@@H]4CCCC(=O)N4)n3)c2)C2(C)CN(C)C2)cc1 [Example 361]
49 | 90 nM | CC(C)c1ccc([C@](O)(c2cncc(-c3noc(C4CCNC(=O)C4)n3)c2)C2(C)CN(C)C2)cc1 (stereo partly shown) [Example 362]
50 | 178 nM | CC(C)c1ccc([C@](O)(c2cncc(-c3noc([C@@H]4CC(=O)N4)n3)c2)C2(C)CN(C)C2)cc1 [Example 363]
51 | 142 nM | CC(C)c1ccc([C@](O)(c2cncc(-c3noc([C@@H]4CNC4=O)n3)c2)C2(C)CN(C)C2)cc1 [Example 364]
52 | 321 nM | CC(C)c1ccc([C@](O)(c2cncc(-c3noc(C4CCNCC4)n3)c2)C2(C)CN(C)C2)cc1 [Example 367]
